The structures appear in SMILES notation.

From patent publication US11401516B2, “Channel modulators” (AUCKLAND UNISERVICES LIMITED, priority 2014, dated 2022) come the findings set out here.

Data set [1] relates to Cx43 mRNA in ARPE-19 cells. The data set is described as follows: Real-time reverse transcription PCR of Cx43 mRNA. Format: cell-based, human. The conditions noted are these: 50 μM, 1 h, versus untreated and vehicle controls. The method, then:
In the below Examples 3, 6 and 7 using human retinal epithelial (ARPE-19) cells, the cells were grown in DMEM/F: 12 (Invitrogen), supplemented with 10% fetal calf serum (FCS), 100 units/mL of penicillin, 100 μg/mL of streptomycin, and 0.25 μg/mL of Fungizone® Antimycotic (Invitrogen).
Real time reverse transcription PCR was used to determine the relative level of Cx43 mRNA. A confluent monolayer of ARPE-19 cells was treated with Tonabersat for 1 hour. Cells were harvested with TRIzol® (Life Technologies), and total RNA was isolated using […] according to manufacturer's instructions. All RNA samples were quantified using a nanodrop 1000 micro volume spectrophotometer (Thermo Scientific). cDNA from samples were synthesised using SuperScript® III First-Strand Synthesis SuperMix (Invitrogen) according to manufacturer's instructions. Primer sequences for hCx43, GenBank Accession No. M65188.1, were obtained from the Harvard Primer bank. […] The appropriate reference gene to be used for relative fold-difference in Cx43 mRNA was determined by screening commonly used house-keeping genes, ß-actin [ACTB], Hypoxanthine phosphoribosyltransferase 1 [HPRT1], peptidylprolyl isomerase A [PPIA], and glyceraldehyde-3-phosphate dehydrogenase [GAPDH]. […] Relative changes in Cx43 mRNA expression were calculated as fold-differences against ß-actin using the 2-ΔΔCt method. […]

In the next data set the test system is hCMVEC cells. Nature of the data set: MTT assay for cell viability. The conditions noted are these: 200 μM, 24-hour treatment. Format: cell-based, human. As for the experimental part:
Stock MTT was prepared by dissolving 5 mg in 1 mL PBS producing a concentration of 5 mg/mL. After the treatment incubation period of cells seeded in a 96 well-plate (at 1×10^4 cells/well) the media was removed and replaced with 100 μL of PBS. 10 μL of MTT stock solution was added to each well, except for those that were used as a blank, and left to incubate at 37° C. for 4 hours at which time the solutions was aspirated from each well. Then 50 μL DMSO (Sigma) was added to each well to dissolve the crystalline product. Viability was determined by measuring the absorbance of the purple crystal produced. This was measured by reading the absorbance at 595 nm in a plate reader; the data was standardized to each control as an internal standard. Statistically was investigated using One-way ANOVA and Tukey's post hoc test where *p<0.05.

Another data set relates to retinal ganglion cells. Nature of the data set: In vivo retinal ischaemia-reperfusion model, Tonabersat. The conditions noted are these: 7 days; for Retinal ganglion cell density: ischaemic eyes, mean±standard error. On the set-up: species or system Wistar rats. The method, then: Animals were anesthetized with an intraperitoneal injection of ketamine (60 mg/kg) and medetomidine hydrochloride (0.4 mg/kg) and the cornea anaesthetized with oxybuprocaine hydrochloride (0.4%). The technique of retinal ischaemia-reperfusion has previously been described (D. Sun, et al., The Journal of comparative neurology 505, 114 (Nov. 1, 2007)). Briefly, the left anterior chamber was cannulated with a 30-gauge infusion needle connected by silicone tubing to a reservoir of sterile 0.9% saline. Cannulation was performed using a stereotaxic manipulator arm to avoid injury to the corneal endothelium, iris, or lens. The intraocular pressure of the cannulated eye was raised to 120 mmHg for 60 minutes by elevating the saline reservoir. Retinal ischaemia-reperfusion was confirmed by pallor of the posterior segment. After 60 minutes, the cannula was removed and reperfusion of the retinal vessels was confirmed by ophthalmoscopy. Three experimental arms were applied at the end of 60 minutes of ischaemia. These included: no treatment (n=6), 10 mg/kg Tonabersat (n=6), or 1 mg/kg Tonabersat (n=4). Systemic delivery of 0.25 mL of a 10 mg/ml or 1 mg/ml Tonabersat solution diluted in 40% PEG, 60% cyclodextrin solution was achieved through intraperitoneal delivery at the start of reperfusion. A final blood Tonabersat concentration of 0.319 mM or 0.0319 mM was intended, assuming a blood volume of 20 mL and total systemic uptake of peptide. Animals were euthanized with CO2 at 7 days after reperfusion. One uninjured animal was euthanized to obtain uninjured retinas as normal controls.
After euthanasia eyes were enucleated, and the cornea, lens, and vitreous humour removed. The dorsal aspect of the retina was notched to retain orientation. The retina and sclera were fixed in 4% PFA in PBS for 60 minutes at room temperature (RT). The retina was then carefully removed from the sclera and permeabilized via incubation in 0.5% Triton-X100 in PBS solution for 15 minutes at […] Retinas were mounted onto SuperFrost Plus slides using citifluor mounting medium, and imaged.
Two fields in each quadrant of each retina were imaged giving a total of eight images per retina. This method insured similar locations were assessed between different eyes and avoided any possible area bias present in the retina. Retinal ganglion cell (RGC) labelling was imaged at 10× magnification. […] Spots of one or two pixels that resulted from noise and artefacts that were clearly not RGC of origin were excluded during particle counts. RGC density was calculated as the number of RGCs per cm2.

Take `CC(=O)c1ccc2c(c1)[C@H](NC(=O)c1ccc(F)c(Cl)c1)[C@H](O)C(C)(C)O2` [Tonabersat, N-[(3S,4S)-6-acetyl-3-hydroxy-2,2-dimethyl-3,4-dihydrochromen-4-yl]-3-chloro-4-fluorobenzamide]: the “Cx43 mRNA level relative to ß-actin” value in data set [1] was “no significant difference in Cx43 mRNA”. Also, in the data set with hCMVEC cells, the cell viability entry was “did not significantly reduce cell viability”. Further, the “RGC loss compared to normal controls” value in the data set with retinal ganglion cells (1 mg/kg intraperitoneal at start of reperfusion) is recorded as 18%; in the data set with retinal ganglion cells (10 mg/kg intraperitoneal at start of reperfusion) it was 35%. In addition, the “Retinal ganglion cell density” value was 199927±26058 cells/cm2 with retinal ganglion cells (1 mg/kg intraperitoneal) and 158739±26370 cells/cm2 with retinal ganglion cells (10 mg/kg intraperitoneal).
